# Biological target: T1, MsHi-1 (Manduca sexta, UniProt Z9A1Z6DDJ7)
# T1 construct: coding region in pGEX-4T-1, N-terminal GST fusion, E. coli BL21 (DE3), GST Sepharose
# Assay: Hi activity with and without added FAD, SPME-GC-qToF-MS
# Format: biochemical
# Details: 1 mM FAD, 0.2 mM Z3AL, 20 mM Tris-HCl pH 7.0, 20 µg BSA
smiles,measurement,value
Cc1cc2nc3c(=O)[nH]c(=O)nc-3n(C[C@H](O)[C@H](O)[C@H](O)COP(=O)(O)OP(=O)(O)OC[C@H]3O[C@@H](n4cnc5c(N)ncnc54)[C@H](O)[C@@H]3O)c2cc1C [flavin adenine dinucleotide],"Hi activity with and without added FAD, SPME-GC-qToF-MS",addition of FAD to enzymatic reactions moderately increased Hi activity across all tested homologues

# Source: PMC13076199, “Convergent evolution of hexenal isomerases in Lepidoptera and plants” (Nature Ecology & Evolution, 2026)
